Converted amounts (≈) assume the structure as drawn.
Assays:
Test in all cases: in vitro antibacterial evaluation, MIC by broth dilution
Assay type in all cases: cell-based
Enterococcus sp. = conditions: broth dilution, 18 hours at 35° C.
Procedure, shortened: (§1)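 Inoculum 5×10^5 CFU/mL; concentrations 64 to 0.06 μg/mL; MIC defined as lowest inhibitory level. Conducted by broth dilution under NCCLS guidelines.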

Streptococcus sp. = conditions: broth dilution, 18 hours at 35° C.
Procedure, shortened: as §1

Staphylococcus sp. = conditions: broth dilution, 18 hours at 35° C.; for MIC Staphylococcus aureus (GC 1131): strain GC 1131
Procedure, shortened: as §1

Escherichia coli = conditions: 18 hours at 35° C.

MIC Enterococcus avium (GC 4558) (Enterococcus sp.): 16 µg/mL (≈ 11.5 µM)
MIC Enterococcus faecalis (ATCC 29212) (Enterococcus sp.): 16 µg/mL (≈ 11.5 µM)
MIC Enterococcus faecalis (GC 2242) (Enterococcus sp.): 16 µg/mL (≈ 11.5 µM)
MIC Enterococcus faecalis (GC 2691) (Enterococcus sp.): 16 µg/mL (≈ 11.5 µM)
MIC Enterococcus faecalis (GC 3059) (Enterococcus sp.): 16 µg/mL (≈ 11.5 µM)
MIC Enterococcus faecalis (GC 4552) (Enterococcus sp.): 16 µg/mL (≈ 11.5 µM)
MIC Enterococcus faecalis (GC 4553) (Enterococcus sp.): 16 µg/mL (≈ 11.5 µM)
MIC Enterococcus faecalis (GC 4554) (Enterococcus sp.): 16 µg/mL (≈ 11.5 µM)
MIC Enterococcus faecalis (GC 6189) (Enterococcus sp.): 16 µg/mL (≈ 11.5 µM)
MIC Enterococcus faecium (GC 2243) (Enterococcus sp.): 16 µg/mL (≈ 11.5 µM)
MIC Enterococcus faecium (GC 4556) (Enterococcus sp.): 16 µg/mL (≈ 11.5 µM)
MIC Enterococcus faecium (GC 4557) (Enterococcus sp.): 8 µg/mL (≈ 5.76 µM)
MIC Enterococcus faecalis (ATCC 29212) (Enterococcus sp.; inoculum 5×10^5 CFU/mL, strain ATCC 29212): 16 µg/mL (≈ 11.5 µM)
MIC Enterococcus faecalis (GC 2242) (Enterococcus sp.; inoculum 5×10^5 CFU/mL, strain GC 2242): 16 µg/mL (≈ 11.5 µM)
MIC Enterococcus faecium (GC 2243) (Enterococcus sp.; inoculum 5×10^5 CFU/mL, strain GC 2243): 16 µg/mL (≈ 11.5 µM)
MIC Enterococcus faecalis (GC 2691) (Enterococcus sp.; inoculum 5×10^5 CFU/mL, strain GC 2691): 16 µg/mL (≈ 11.5 µM)
MIC Enterococcus faecalis (GC 3059) (Enterococcus sp.; inoculum 5×10^5 CFU/mL, strain GC 3059): 16 µg/mL (≈ 11.5 µM)
MIC Enterococcus faecalis (GC 4552) (Enterococcus sp.; inoculum 5×10^5 CFU/mL, strain GC 4552): 16 µg/mL (≈ 11.5 µM)
MIC Enterococcus faecalis (GC 4553) (Enterococcus sp.; inoculum 5×10^5 CFU/mL, strain GC 4553): 16 µg/mL (≈ 11.5 µM)
MIC Enterococcus faecalis (GC 4554) (Enterococcus sp.; inoculum 5×10^5 CFU/mL, strain GC 4554): 16 µg/mL (≈ 11.5 µM)
MIC Enterococcus faecium (GC 4556) (Enterococcus sp.; inoculum 5×10^5 CFU/mL, strain GC 4556): 16 µg/mL (≈ 11.5 µM)
MIC Enterococcus faecium (GC 4557) (Enterococcus sp.; inoculum 5×10^5 CFU/mL, strain GC 4557): 8 µg/mL (≈ 5.76 µM)
MIC Enterococcus avium (GC 4558) (Enterococcus sp.; inoculum 5×10^5 CFU/mL, strain GC 4558): 16 µg/mL (≈ 11.5 µM)
MIC Enterococcus faecalis (GC 6189) (Enterococcus sp.; inoculum 5×10^5 CFU/mL, strain GC 6189): 16 µg/mL (≈ 11.5 µM)
MIC Streptococcus agalactiae (GC 4564) (Streptococcus sp.): 1 µg/mL (≈ 0.72 µM)
MIC Streptococcus pneumoniae (ATCC 6301) (Streptococcus sp.): 0.5 µg/mL (≈ 0.36 µM)
MIC Streptococcus pneumoniae (GC 1894) (Streptococcus sp.): 0.25 µg/mL (≈ 0.18 µM)
MIC Streptococcus pneumoniae (GC 4565) (Streptococcus sp.): 0.5 µg/mL (≈ 0.36 µM)
MIC Streptococcus pyogenes (GC 4563) (Streptococcus sp.): 0.5 µg/mL (≈ 0.36 µM)
MIC Streptococcus pneumoniae (ATCC 6301) (Streptococcus sp.; inoculum 5×10^5 CFU/mL, strain ATCC 6301): 0.5 µg/mL (≈ 0.36 µM)
MIC Streptococcus pneumoniae (GC 1894) (Streptococcus sp.; inoculum 5×10^5 CFU/mL, strain GC 1894): 0.25 µg/mL (≈ 0.18 µM)
MIC Streptococcus pyogenes (GC 4563) (Streptococcus sp.; inoculum 5×10^5 CFU/mL, strain GC 4563): 0.5 µg/mL (≈ 0.36 µM)
MIC Streptococcus agalactiae (GC 4564) (Streptococcus sp.; inoculum 5×10^5 CFU/mL, strain GC 4564): 1 µg/mL (≈ 0.72 µM)
MIC Streptococcus pneumoniae (GC 4565) (Streptococcus sp.; inoculum 5×10^5 CFU/mL, strain GC 4565): 0.5 µg/mL (≈ 0.36 µM)
MIC Staphylococcus aureus (GC 1131) (Staphylococcus sp.; inoculum 5×10^5 CFU/mL): 8 µg/mL (≈ 5.76 µM)
MIC Staphylococcus aureus (ATCC 29213) (Staphylococcus sp.; strain ATCC 29213): 4 µg/mL (≈ 2.88 µM)
MIC Staphylococcus aureus (GC 1131) (Staphylococcus sp.): 8 µg/mL (≈ 5.76 µM)
MIC Staphylococcus aureus (GC 3051) (Staphylococcus sp.; strain GC 3051): 4 µg/mL (≈ 2.88 µM)
MIC Staphylococcus aureus (GC 3053) (Staphylococcus sp.; strain GC 3053): 8 µg/mL (≈ 5.76 µM)
MIC Staphylococcus aureus (GC 4541) (Staphylococcus sp.; strain GC 4541): 4 µg/mL (≈ 2.88 µM)
MIC Staphylococcus aureus (GC 4542) (Staphylococcus sp.; strain GC 4542): 4 µg/mL (≈ 2.88 µM)
MIC Staphylococcus aureus-SMITH (GC 4543) (Staphylococcus sp.; strain GC 4543): 4 µg/mL (≈ 2.88 µM)
MIC Staphylococcus aureus (GC 4544) (Staphylococcus sp.; strain GC 4544): 8 µg/mL (≈ 5.76 µM)
MIC Staphylococcus aureus (GC 4545) (Staphylococcus sp.; strain GC 4545): 4 µg/mL (≈ 2.88 µM)
MIC Coagulase Negative Staphylococcus (GC 4547) (Staphylococcus sp.; strain GC 4547): 4 µg/mL (≈ 2.88 µM)
MIC Coagulase Negative Staphylococcus (GC 4548) (Staphylococcus sp.; strain GC 4548): 4 µg/mL (≈ 2.88 µM)
MIC Coagulase Negative Staphylococcus (GC 4549) (Staphylococcus sp.; strain GC 4549): 2 µg/mL (≈ 1.44 µM)
MIC Coagulase Negative Staphylococcus (GC 4551) (Staphylococcus sp.; strain GC 4551): 4 µg/mL (≈ 2.88 µM)
MIC Escherichia coli (ATCC 25922) (Escherichia coli): 128 µg/mL (≈ 92.1 µM)
MIC Escherichia coli (GC 4559) (Escherichia coli): 128 µg/mL (≈ 92.1 µM)
MIC Escherichia coli (GC 4560) (Escherichia coli): 4 µg/mL (≈ 2.88 µM)
Structure (SMILES): CC(c1ccccc1)C1NC(=O)CNC(=O)C(CO)NC(=O)C(C(O)C2CNC(=N)N2C2OC(CO)C(O)C(O)C2O)NC(=O)C(C(O)C2CNC(=N)N2)NC(=O)C(Cc2ccc(OC3OC(CO)C(OC4OC5COC6(CCCCC6C)OC5C(O)C4O)C(O)C3O)cc2)NC1=O (stereo not shown) [Example 204]
MIC Staphylococcus haemolyticus (GC 4546) (Staphylococcus sp.; strain GC 4546): 2 µg/mL (≈ 1.44 µM)
